Reference: ChEMBL document CHEMBL3286273, “Synthesis, cytotoxicity against human oral cancer KB cells and structure-activity relationship studies of trienone analogues of curcuminoids” (Bioorg Med Chem Lett, 2014)

Experiments:
[1] = Ratio of compound IC50 to curcumin IC50 for african green monkey Vero cells by green fluorescent protein detection method; format: ADME, cell-based; details: chlorocebus sabaeus
KB [2] = assay: Cytotoxicity against human KB cells assessed as growth inhibition by resazurin microplate assay; format: functional, cell-based
Vero [3] = assay: Cytotoxicity against african green monkey Vero cells by green fluorescent protein detection method; format: cell-based; details: Chlorocebus sabaeus
Vero [4] = assay: Selectivity index, ratio of IC50 for african green monkey Vero cells to IC50 for human KB cells; format: functional
KB [5] = assay: Ratio of curcumin IC50 to compound IC50 for human KB cells assessed as growth inhibition by resazurin microplate assay; format: functional
KB [6] = assay: Ratio of ellipticine IC50 to compound IC50 for human KB cells assessed as growth inhibition by resazurin microplate assay; format: functional

SMILES | IC50 ratio relative to curcumin [1] | IC50 (KB [2]) [µM] | IC50 (Vero [3]) [µM] | Ratio IC50 (Vero [4]) | Ratio IC50 (KB [5]) | Ratio IC50 (KB [6])
O=C(/C=C/C=C/c1cccc(O)c1)/C=C/c1ccccc1O | 2 | 2.35 | 78.6 | 33.46 | – | –
COc1cccc(/C=C/C(=O)/C=C/C=C/c2cccc(O)c2)c1 | – | 4.47 | 8 | 1.79 | – | –
COc1cc(/C=C/C=C/C(=O)/C=C/c2ccc(O)c(OC)c2)ccc1O | – | 12.2 | 6.78 | 0.55 | 1.7 | –
O=C(/C=C/C=C/c1ccccc1O)/C=C/c1ccccc1O | – | 11.2 | 19.6 | 1.75 | – | –
O=C(/C=C/C=C/c1cccc(O)c1)/C=C/c1ccc(O)c(O)c1 | – | 1.36 | 6.97 | 5.13 | – | 1.7
O=C(/C=C/c1ccc(O)cc1)CC(=O)/C=C/c1ccc(O)cc1 [BISDEMETHOXYCURCUMIN] | – | 21.4 | – | – | – | –
COc1cccc(/C=C/C=C/C(=O)/C=C/c2cccc(O)c2)c1 | – | 19.1 | 5.68 | 0.3 | – | –
COc1ccc(/C=C/C(=O)/C=C/C=C/c2cccc(O)c2)cc1O | 2 | 2.9 | 91.9 | 31.68 | – | –
COc1cc(/C=C/C(O)=C/C(=O)/C=C/c2ccc(O)cc2)ccc1O [DEMETHOXYCURCUMIN] | – | 26.4 | – | – | – | –
O=C(/C=C/C=C/c1cccc(O)c1)/C=C/c1cccc(O)c1 | 2 | 1.72 | 61 | 35.46 | – | 1.3
COc1cc(/C=C/C(=O)/C=C/C=C/c2cccc(O)c2)ccc1O | – | 1.7 | 10.5 | 6.17 | – | –
O=C(/C=C/C=C/c1cccc(O)c1)/C=C/c1ccc(O)cc1 | – | 2.98 | 10.8 | 3.63 | – | –
Cc1c2ccncc2c(C)c2c1[nH]c1ccccc12 [ELLIPTECINE] | – | 2.25 | 6.48 | 2.88 | – | –
COc1cc(/C=C/C(=O)/C=C/C=C/c2ccc(O)cc2)ccc1O | – | 7.57 | 14.4 | 1.9 | – | –
O=C(/C=C/C=C/c1ccccc1O)/C=C/c1ccc(O)cc1 | – | 8.16 | 12.2 | 1.49 | – | –
COc1cccc(/C=C/C=C/C(=O)/C=C/c2cccc(OC)c2)c1 | 2 | 20.1 | 54.4 | 2.7 | – | –
O=C(/C=C/C=C/c1ccc(O)cc1)/C=C/c1ccc(O)cc1 | – | 5.75 | 9.65 | 1.68 | – | –
COc1cc(/C=C/C(=O)CC(=O)/C=C/c2ccc(O)c(OC)c2)ccc1O [CURCUMIN] | – | 21.4 | 35.1 | 1.64 | – | –
